Laboratory results as given in article PMC4393083, “Antiviral Activity and Possible Mechanism of Action of Constituents Identified in Paeonia lactiflora Root toward Human Rhinoviruses” (PLoS ONE, 2015).
Like-named read-outs stand apart in the source and are kept apart here.

Tests used:
HRV-4 = test: Time-of-addition assay, HRV-4 in MRC5 cells; assay type: cell-based; details: Human rhinovirus sp.
Method: The time-of-addition effects of all compounds on HRV-4 were examined according to the method of Choi et al.. In brief, monolayers of MRC5 cells were seeded onto a 96-well culture plate as stated previously. After washing with PBS, 100 μg/mL PA, 20 μg/mL PGG, and 100 μg/mL ribavirin were separately added onto the cells at either before (–1 h), during (0 h), or after (1, 2, 3, 4, 6, 8, 12, 16, 20, and 24 h) HRV-4 infection at 37°C. After 2 days, MTT test and antiviral activity were carried out as stated previously.

HRV-2 = test: Real-time qRT-PCR of HRV-2 RNA replication in MRC5 cells; assay type: cell-based, human rhinovirus; details: MRC5, 2 days after infection; 100 μg/mL PA, 20 μg/mL PGG; vs untreated cultures
Method: (§1) To evaluate the level of gene expression, real-time qRT-PCR with SYBR Green dye was carried out. HRV-2 or HRV-4 infected and noninfected cultures of MRC5 monolayers grown in 25 cm^2 cell culture flasks (Corning, NY) were treated with 100 μg/mL PA or 20 μg/mL PGG. After incubation at 37°C and 5% CO2 for 2 days, total RNA was extracted from the culture cells using the RNeasy Plus Mini Kit (Qiagen, Hilden, Germany) according to the manufacturer’s instructions. Contaminated genomic DNA was removed using RQ1 RNase-free DNase (Promega, Madison, WI). Complementary DNA (cDNA) was synthesized using 1 μg total RNA through a reverse transcription reaction using the SuperScript First-Strand Synthesis Kit (Invitrogen, Carlsbad, CA). […] The PCR conditions were as follows: 50°C for 2 min, 95°C for 10 min, and then 50 cycles of 95°C for 15 s and either 60°C [β2-microglobulin (B2M), interleukin (IL)-6, IL-8, LDLR, ICAM-1, HRV-2, and HRV-4] or 58°C (B2M and IL-1β) or 55°C [B2M, Toll-like receptor 3 (TLR3), tumor necrosis factor (TNF), and interferon beta (IFNβ)] for 30 s. mRNA expression level of target gene was normalized to mRNA expression level for the housekeeping gene B2M and analyzed by the 2^–ΔΔCT method using StepOne Software v2.1 and DataAssist Software (Applied Biosystems). […]

mICAM-1 = test: Western blot of mICAM-1 in MRC5 cells; assay type: cell-based, human; details: MRC5, 2 days, HRV-2 or HRV-4, 100 μg/mL PA, 20 μg/mL PGG
Method: Cell lysates from infected and noninfected MRC5 cultures 2 days after incubation with or without test compounds were obtained in RIPA buffer and 1% mammalian cell protease inhibitor cocktail according to the manufacturer’s instructions. Working dilutions of primary antibodies were dilulted 500, 2000, and 1000 times for anti-ICAM-1, anti-LDLR, and anti-actin antibodies, respectively. Working dilutions of secondary antibody was 1000, 1000, and 800 for anti-ICAM-1, anti-LDLR, and anti-actin, respectively. Ten micrograms of cell lysates from different treatments were mixed with an equal volume of 5× Laemmli sample buffer, boiled in 10 min, and resolved by electrophoresis in 11% sodium dodecyl sulfate-polyacrylamide gels (SDS-PAGE). […] Differences in protein expressions were quantified using a Molecular Imager Gel Doc XR system (Bio-Rad, Hercules, CA) and normalized to actin expression on the same membrane.
The expressions of ICAM-1 and LDLR were examined using real-time qRT-PCR and Western blot. Furthermore, concentrations of soluble ICAM-1 (sICAM-1) in cell-free culture supernatants 2 days after treatment were measured using a sICAM-1 ELISA Kit (Pierce Biotechnology, Rockford, IL) according to the manufacturer’s instructions. […] The concentrations of ICAM-1 in the test samples were determined from OD values using standard curve of each assay.

IL-6 [1] = test: IL-6 mRNA expression, qRT-PCR in MRC5; assay type: cell-based, human; details: MRC5, 2 days after HRV-2 or HRV-4 infection; 100 μg/mL PA, 20 μg/mL PGG
Method: as §1

TNF = TNF mRNA expression, qRT-PCR in MRC5; assay type: cell-based, human; details: MRC5, 2 days; 100 μg/mL PA, 20 μg/mL PGG; vs untreated cells
Method: as §1

IL-1β = IL-1β mRNA expression, qRT-PCR in MRC5; assay type: cell-based, human; details: MRC5, 2 days after HRV-2 or HRV-4 infection; 100 μg/mL PA, 20 μg/mL PGG
Method: as §1

IL-6 [2] = test: IL-6 ELISA in MRC5 supernatants; assay type: cell-based, human; details: for IL-6 concentrations in infected cultures: HRV-2 or HRV-4 infected MRC5 supernatants, 2 days, 100 μg/mL PA, 20 μg/mL PGG
Method: The concentrations of IL-6, IL-8, and TNF in cell-free culture supernatants 2 days after treatment were measured using specific ELISA. OptEIA IL-6, IL-8, and TNF ELISA kits (BD Biosciences, San Diego, CA) were used for the assays. The sensitivities of these ELISA assays were 2.2, 0.8, and 2.0 pg/mL, respectively. The concentrations of IL-6, IL-8, and TNF in the test samples were determined from OD values using standard curve of each assay.

[3] = HRV4, 0 h, 100 μg/mL PA, 20 μg/mL PGG, 100 μg/mL ribavirin, read-out: inhibition of HRV-4 infection, added at virus inoculation (0 h)
[4] = HRV4, read-out: inhibition of HRV-4 infection, added prior (–1 h) or post (1–24 h) infection, 100 μg/mL PA, 20 μg/mL PGG

SMILES | inhibition at 100 µg/mL (HRV-4; [3]) | inhibition at 100 µg/mL (HRV-4; [4]) | reduction of HRV-2 RNA replication level (HRV-2) | mICAM-1 protein levels vs cultures without treatment (mICAM-1) | effect on HRV-induced IL-6 mRNA expression (IL-6 [1]) | effect on TNF mRNA expression (TNF) | effect on HRV-induced IL-1β mRNA expression (IL-1β) | IL-6 concentrations in infected cultures (IL-6 [2]) | IL-6 concentrations in mock cultures vs mock cultures without treatment (IL-6 [2]; noninfected MRC5 supernatants) | inhibition at 20 µg/mL (HRV-4; [3]) | inhibition at 20 µg/mL (HRV-4; [4])
COc1ccc(C(C)=O)c(O)c1 [PA, paeonol] | 57.2% | ≤ 40% | 30.1 fold | similar | significantly reduced | did not remarkably reduce | disappeared or was significantly reduced | reduced | higher |  | 
O=C(OC[C@H]1O[C@@H](OC(=O)c2cc(O)c(O)c(O)c2)[C@H](OC(=O)c2cc(O)c(O)c(O)c2)[C@@H](OC(=O)c2cc(O)c(O)c(O)c2)[C@@H]1OC(=O)c1cc(O)c(O)c(O)c1)c1cc(O)c(O)c(O)c1 [PGG, 1,2,3,4,6-penta-O-galloyl-β-D-glucopyranose] |  |  | 14.3 fold | similar | significantly reduced | did not remarkably reduce | disappeared or was significantly reduced | reduced |  | 54.5% | ≤ 40%
